System: Human Heme Oxygenase-1 (HMOX-1)
Assay: ELISA assay to measure human heme oxygenase-1 (HMOX-1) in HepG2 lysate
Format: cell-based
Settings: for Maximum Fold induction: fold change of human HMOX1 protein levels relative to DMSO control, HepG2; for EC50: human HMOX1 protein in HepG2 lysate, ELISA, * = average of 2 or more EC50 determinations, NA = Not Active
Procedure: Example 143. ELISA Assay to Measure Human Heme Oxygenase-1 (HMOX-1) in HepG2 lysate
Reagents and Technical Notes:
ELISA capture antibody, standard HO-1, detection antibody and streptavidin HRP were supplied in the DuoSet IC Human total HO-1 ELISA from R&D systems (DYC3776-2). The substrate cocktail was KPL LumiGLO reserve Chemiluminescent Substrate (54-71-00). PBS was Corning Cellgro Cell Culture (21-040-CV). 10×PBS+0.05% tween20 (PBST) was from KPL.
All incubations of the plate were at room temperature (20° C.) in a closed drawer.
The ELISA plate was processed manually. All loadings were with a multichannel pipet. Plates were emptied by shaking into the sink and tapping onto paper towels to remove any remaining reagent. Plate washing was accomplished by loading all wells with PBS+0.05% tween20 (PBST) using a squirt bottle, shaking the PBST out and tapping the plate onto paper towels.
Preparation of the ELISA Plate: • 1. anti-HO-1 capture antibody was 1440 μg/ml after reconstitution in PBS. This antibody was diluted to 8 μg/ml in PBS and 50 μl per well was added to a 384 well greiner “lumitrac 200” plate. Incubated overnight. • 2. The plate was emptied and 100 μl PBS+1% BSA added to all wells. Incubated 90 minutes at room temperature.
Preparation of HepG2 Lysate: • 1. Cells were cultured in a 96-well tissue culture plate washed with PBS and then the plate frozen at −70° C. overnight. Plates were allowed to warm to ice temperature in an ice bucket. 20 μl of PBS, 0.5% Triton X100, 1 mM EDTA with 1×HALT™ protease inhibitors was added to each well and the plates incubated on ice for 1 hour. • 2. The lysates were frozen at −20° C. overnight.
Measurement of HMOX1 (“HO-1”) • 1. In a polypropylene 384 well plate, human HO-1(after reconstitution in PBS+0.5% Triton+1 mM EDTA) was serially diluted from 20 ng/ml 2-fold in PBS+0.5% triton-X100, 1 mM EDTA to make a 12-point standard curve including a zero point. • 2. In a polypropylene 96 well plate, HepG2 lysate was diluted 1 to 20 in Diluent #4 from DUOSET kit in which the assay standard is also diluted. • 3. The PBS+1% BSA was emptied from the ELISA plate and 30 μl of all samples and standards were added (duplicates recommended). The plate was incubated 90 minutes. • 4. Emptied plate and washed 4 times with PBST. • 5. Diluted HO-1 detection antibody to 200 ng/ml in PBS+1% BSA and added 30 μl to all wells. Incubated 90 minutes. • 6. Emptied plate and washed 4 times with PBST. • 7. Added 30 μl streptavidin HRP at 1/200 in PBS+1% BSA (stock streptavidin concentration not specified) to all wells. Incubated 30 minutes. • 8. Emptied plate and washed 4 times with PBST. • 9. Diluted Lumiglo reserve reagent two parts buffer to one part lumiglo substrate. Added 30 μl to all wells. Incubated 5 minutes. • 10. Measured chemiluminescence on spectramax M5 using 150 ms integration.
Table 1 below lists EC50 and fold changes of human HMOX1 protein levels relative to DMSO control upon treatment with representative compounds.

COCCNC(=O)c1ccc2c(c1)nc(Nc1nc3cc(OC(F)(F)F)ccc3[nH]1)n2C1CCOCC1 [Example 81, N-(2-methoxyethyl)-1-(tetrahydro-2H-pyran-4-yl)-2-((5-(trifluoromethoxy)-1H-benzo[d]imidazol-2-yl)amino)-1H-benzo[d]imidazole-5-carboxamide]
Maximum Fold induction: 19-30

Cn1c(Nc2nc3ccc(C(F)(F)F)cc3o2)nc2cc(C(=O)NCCOCC(=O)O)ccc21 [Example 41, 2-(2-(1-methyl-2-((6-(trifluoromethyl)benzo[d]oxazol-2-yl)amino)-1H-benzo[d]imidazole-5-carboxamido)ethoxy)acetic acid]
Maximum Fold induction: 35-39

CN1CCC(n2c(Nc3nc4ccc(OC(F)(F)F)cc4s3)nc3cc(C(=O)O)ccc32)CC1 [Example 3d, 1-(1-methylpiperidin-4-yl)-2-((6-(trifluoromethoxy)benzo[d]thiazol-2-yl)amino)-1H-benzo[d]imidazole-5-carboxylic acid]
Maximum Fold induction: 13

CN(C)CC(=O)NCCNC(=O)c1ccc2c(c1)nc(Nc1nc3ccc(OC(F)(F)F)cc3o1)n2C [Example 49, N-(2-(2-(dimethylamino)acetamido)ethyl)-1-methyl-2-((6-(trifluoromethoxy)benzo[d]oxazol-2-yl)amino)-1H-benzo[d]imidazole-5-carboxamide]
Maximum Fold induction: 14-23

COCCOc1ccc2nc(Nc3nc4cc(C(=O)NOCCO)ccc4n3C)oc2c1 [Example 128, N-(2-hydroxyethoxy)-2-((6-(2-methoxyethoxy)benzo[d]oxazol-2-yl)amino)-1-methyl-1H-benzo[d]imidazole-5-carboxamide]
Maximum Fold induction: 48-75

Cn1c(Nc2nc3ccccc3o2)nc2cc(C(=O)NCCO)ccc21 [Example 16, 2-(benzo[d]oxazol-2-ylamino)-N-(2-hydroxyethyl)-1-methyl-1H-benzo[d]imidazole-5-carboxamide]
Maximum Fold induction: 8-27

COCCNC(=O)c1ccc2c(c1)nc(Nc1nc3ccc(OC(F)(F)F)cc3o1)n2CC1CCOC1 (stereo not shown) [Example 88, N-(2-methoxyethyl)-1-((tetrahydrofuran-3-yl)methyl)-2-((6-(trifluoromethoxy)benzo[d]oxazol-2-yl)amino)-1H-benzo[d]imidazole-5-carboxamide]
EC50: 1500 nM

COCCNC(=O)c1ccc2c(c1)nc(Nc1nc3ccc(OC(F)(F)F)cc3s1)n2C1CCN(C)C1 (stereo not shown) [Example 4e, N-(2-methoxyethyl)-1-(1-methylpyrrolidin-3-yl)-2-((6-(trifluoromethoxy)benzo[d]thiazol-2-yl)amino)-1H-benzo[d]imidazole-5-carboxamide]
Maximum Fold induction: 19

COCCNC(=O)c1ccc2c(c1)nc(Nc1nc3ccccc3o1)n2C [Example 1i, 2-(benzo[d]oxazol-2-ylamino)-N-(2-methoxyethyl)-1-methyl-1H-benzo[d]imidazole-5-carboxamide]
Maximum Fold induction: 6-15

CC(O)CONC(=O)c1ccc2c(c1)nc(Nc1nc3ccccc3o1)n2C (stereo not shown) [Example 120, 2-(benzo[d]oxazol-2-ylamino)-N-(2-hydroxypropoxy)-1-methyl-1H-benzo[d]imidazole-5-carboxamide]
Maximum Fold induction: 26

CCn1c(Nc2nc3ccc(OC(F)(F)F)cc3o2)nc2cc(C(=O)NCCOC)ccc21 [Example 85, 1-ethyl-N-(2-methoxyethyl)-2-((6-(trifluoromethoxy)benzo[d]oxazol-2-yl)amino)-1H-benzo[d]imidazole-5-carboxamide]
EC50: 1300 nM

CCn1c(Nc2nc3ccc(OC(F)(F)F)cc3o2)nc2cc(C(=O)NCCO)ccc21 [Example 86, 1-ethyl-N-(2-hydroxyethyl)-2-((6-(trifluoromethoxy)benzo[d]oxazol-2-yl)amino)-1H-benzo[d]imidazole-5-carboxamide]
Maximum Fold induction: 15-32

Cn1c(Nc2nc3ccccc3o2)nc2cc(C(=O)NCCOCCO)c(F)cc21 [Example 72, 2-(benzo[d]oxazol-2-ylamino)-6-fluoro-N-(2-(2-hydroxyethoxy)ethyl)-1-methyl-1H-benzo[d]imidazole-5-carboxamide]
Maximum Fold induction: 31-72

CN(C)CCONC(=O)c1ccc2c(c1)nc(Nc1nc3ccccc3o1)n2C [Example 123, 2-(benzo[d]oxazol-2-ylamino)-N-(2-(dimethylamino)ethoxy)-1-methyl-1H-benzo[d]imidazole-5-carboxamide]
Maximum Fold induction: 22

CN(C)CC(=O)NCCNC(=O)c1ccc2c(c1)nc(Nc1nc3ccc(C(F)(F)F)cc3o1)n2C [Example 40, N-(2-(2-(dimethylamino)acetamido)ethyl)-1-methyl-2-((6-(trifluoromethyl)benzo[d]oxazol-2-yl)amino)-1H-benzo[d]imidazole-5-carboxamide]
Maximum Fold induction: 56-93

Cn1c(Nc2nc3ccc(C(F)(F)F)cc3o2)nc2cc(C(=O)NCCN3CCCC3)ccc21 [Example 36, 1-methyl-N-(2-(pyrrolidin-1-yl)ethyl)-2-((6-(trifluoromethyl)benzo[d]oxazol-2-yl)amino)-1H-benzo[d]imidazole-5-carboxamide]
Maximum Fold induction: 42

Cn1c(Nc2nc3ccc(C(F)(F)F)cc3o2)nc2cc(C(=O)O)ccc21 [Example 31, 1-methyl-2-((6-(trifluoromethyl)benzo[d]oxazol-2-yl)amino)-1H-benzo[d]imidazole-5-carboxylic acid]
Maximum Fold induction: 25-29

O=C(NCCO)c1ccc2c(c1)nc(Nc1nc3ccc(OC(F)(F)F)cc3o1)n2CC1(O)COC1 [Example 95, N-(2-hydroxyethyl)-1-((3-hydroxyoxetan-3-yl)methyl)-2-((6-(trifluoromethoxy)benzo[d]oxazol-2-yl)amino)-1H-benzo[d]imidazole-5-carboxamide]
Maximum Fold induction: 21

Cn1c(Nc2nc3ccc(C(F)(F)F)cc3o2)nc2cc(C(=O)NCCOCC(C)(C)O)ccc21 [Example 42, N-(2-(2-hydroxy-2-methylpropoxy)ethyl)-1-methyl-2-((6-(trifluoromethyl)benzo[d]oxazol-2-yl)amino)-1H-benzo[d]imidazole-5-carboxamide]
Maximum Fold induction: 39

COCCOc1ccc2nc(Nc3nc4cc(C(=O)NCCOCCO)ccc4n3C)oc2c1 [Example 58, N-(2-(2-hydroxyethoxy)ethyl)-2-((6-(2-methoxyethoxy)benzo[d]oxazol-2-yl)amino)-1-methyl-1H-benzo[d]imidazole-5-carboxamide]
Maximum Fold induction: 41-60

CC(O)CNC(=O)c1ccc2c(c1)nc(Nc1nc3ccccc3o1)n2C (stereo not shown) [Example 23, 2-(benzo[d]oxazol-2-ylamino)-N-(2-hydroxypropyl)-1-methyl-1H-benzo[d]imidazole-5-carboxamide]
Maximum Fold induction: 25-61

COCCNC(=O)c1ccc2c(c1)nc(Nc1nc3ccc(OCC(F)(F)F)cc3o1)n2C [Example 99, N-(2-methoxyethyl)-1-methyl-2-((6-(2,2,2-trifluoroethoxy)benzo[d]oxazol-2-yl)amino)-1H-benzo[d]imidazole-5-carboxamide]
Maximum Fold induction: 25-31

Reference: patent US20240051952A1, “HMOX1 INDUCERS” (Mitobridge Inc., priority 2019, published 2024)
